Source: PMC5218480 (PLoS ONE, 2017)

System: MV-4-11 cells
Test: Gene expression microarray analysis (Affymetrix PrimeView) and GSEA
Type: cell-based, human
Set-up: RFU PODN (11730768_x_at) / Fold change /veh PODN (11730768_x_at) / RFU LINC00158 (11744669_a_at) / Fold change /veh LINC00158 (11744669_a_at) / RFU DUSP10 (11751237_a_at) / Fold change /veh DUSP10 (11751237_a_at) / RFU ID3 (11757404_x_at) / Fold change /veh ID3 (11757404_x_at) / RFU PLEKHG5 (11737974_s_at) / Fold change /veh PLEKHG5 (11737974_s_at) / RFU LRRC4B (11730491_at) / Fold change /veh LRRC4B (11730491_at) / RFU GIMAP4 (11747438_a_at) / Fold change /veh GIMAP4 (11747438_a_at) / RFU KRT8 (11758183_x_at) / Fold change /veh KRT8 (11758183_x_at) / RFU CNN1 (11734310_a_at) / Fold change /veh CNN1 (11734310_a_at) / RFU VPS37D (11726825_at) / Fold change /veh VPS37D (11726825_at) / RFU C10orf10 (11716522_x_at) / Fold change /veh C10orf10 (11716522_x_at) / RFU KIR2DL2 /// KIR2DL4 /// KIR2DL5A /// KIR2DL5B /// KIR2DS1 /// KIR2DS2 /// KIR2DS3 /// KIR2DS4 /// KIR3DL3 /// KIR3DL3 /// KIR3DS1 (11738374_at) / Fold change /veh KIR2DL2 /// KIR2DL4 /// KIR2DL5A /// KIR2DL5B /// KIR2DS1 /// KIR2DS2 /// KIR2DS3 /// KIR2DS4 /// KIR3DL3 /// KIR3DL3 /// KIR3DS1 (11738374_at) / RFU C1QL1 (11718748_at) / Fold change /veh C1QL1 (11718748_at) / RFU TMPRSS4 (11747572_a_at) / Fold change /veh TMPRSS4 (11747572_a_at) / RFU HAMP (11756126_x_at) / Fold change /veh HAMP (11756126_x_at) / RFU RNFT2 (11725882_a_at) / Fold change /veh RNFT2 (11725882_a_at) / RFU NR4A2 (11747474_a_at) / Fold change /veh NR4A2 (11747474_a_at) / RFU ABCC12 (11746883_a_at) / Fold change /veh ABCC12 (11746883_a_at) / RFU TMEM136 (11760407_x_at) / Fold change /veh TMEM136 (11760407_x_at) / RFU CLDN22 /// WWC2 (11732394_at) / Fold change /veh CLDN22 /// WWC2 (11732394_at) / RFU HLA-DPB1 (11760878_x_at) / Fold change /veh HLA-DPB1 (11760878_x_at) / RFU SPINT1 (11716480_a_at) / Fold change /veh SPINT1 (11716480_a_at) / RFU GAP43 (11754022_s_at) / Fold change /veh GAP43 (11754022_s_at) / RFU A4GNT (11735810_at) / Fold change /veh A4GNT (11735810_at) / RFU PRB3 (11715151_x_at) / Fold change /veh PRB3 (11715151_x_at) / RFU TUBB4B (11761932_at) / Fold change /veh TUBB4B (11761932_at) / RFU CAPN14 (11732068_a_at) / Fold change /veh CAPN14 (11732068_a_at) / RFU TMCC2 (11721928_a_at) / Fold change /veh TMCC2 (11721928_a_at) / RFU IRGQ (11745062_a_at) / Fold change /veh IRGQ (11745062_a_at) / RFU FAM174B (11720279_a_at) / Fold change /veh FAM174B (11720279_a_at) / RFU TMPRSS4 (11748680_a_at) / Fold change /veh TMPRSS4 (11748680_a_at) / RFU FAM212B (11763350_a_at) / Fold change /veh FAM212B (11763350_a_at) / RFU PLEKHG5 (11743358_a_at) / Fold change /veh PLEKHG5 (11743358_a_at) / RFU ZSCAN30 (11745921_a_at) / Fold change /veh ZSCAN30 (11745921_a_at) / RFU CMKLR1 (11741424_a_at) / Fold change /veh CMKLR1 (11741424_a_at) / RFU LOC101060620 /// MAPK8IP1 (11723275_at) / Fold change /veh LOC101060620 /// MAPK8IP1 (11723275_at) / RFU SPTSSB (11747773_x_at) / Fold change /veh SPTSSB (11747773_x_at) / RFU PRSS12 (11739890_at) / Fold change /veh PRSS12 (11739890_at) / RFU BIN1 (11741810_x_at) / Fold change /veh BIN1 (11741810_x_at) / RFU WNT11 (11732464_a_at) / Fold change /veh WNT11 (11732464_a_at) / RFU C10orf10 (11716521_a_at) / Fold change /veh C10orf10 (11716521_a_at) / RFU C5orf56 (11738089_at) / Fold change /veh C5orf56 (11738089_at) / RFU CYB561 (11721691_x_at) / Fold change /veh CYB561 (11721691_x_at) / RFU ANKRD19P (11752326_a_at) / Fold change /veh ANKRD19P (11752326_a_at) / RFU OR2T12 /// OR2T33 /// OR2T8 (11738714_s_at) / Fold change /veh OR2T12 /// OR2T33 /// OR2T8 (11738714_s_at) / RFU VCAN (11748164_a_at) / Fold change /veh VCAN (11748164_a_at) / RFU JSRP1 (11732532_at) / Fold change /veh JSRP1 (11732532_at) / RFU KRTAP10-11 (11738290_x_at) / Fold change /veh KRTAP10-11 (11738290_x_at) / RFU MYO3A (11730013_a_at) / Fold change /veh MYO3A (11730013_a_at) / RFU EBF3 (11725865_a_at) / Fold change /veh EBF3 (11725865_a_at) / RFU CAMK2N1 (11719241_x_at) / Fold change /veh CAMK2N1 (11719241_x_at) / RFU C5orf56 (11738088_a_at) / Fold change /veh C5orf56 (11738088_a_at) / RFU OLFML3 (11715873_a_at) / Fold change /veh OLFML3 (11715873_a_at) / RFU LOC100653217 /// NTM (11731650_a_at) / Fold change /veh LOC100653217 /// NTM (11731650_a_at) / RFU MAPK11 (11762145_a_at) / Fold change /veh MAPK11 (11762145_a_at) / RFU FIZ1 (11724087_x_at) / Fold change /veh FIZ1 (11724087_x_at) / RFU OASL (11726364_x_at) / Fold change /veh OASL (11726364_x_at) / RFU SOX15 (11748057_x_at) / Fold change /veh SOX15 (11748057_x_at) / RFU CD79A (11719716_a_at) / Fold change /veh CD79A (11719716_a_at) / RFU HIST1H1D (11736915_at) / Fold change /veh HIST1H1D (11736915_at) / RFU CASKIN2 (11723855_a_at) / Fold change /veh CASKIN2 (11723855_a_at) / RFU LOC730098 (11760151_x_at) / Fold change /veh LOC730098 (11760151_x_at) / RFU OR4N2 (11742367_at) / Fold change /veh OR4N2 (11742367_at) / RFU PRRT2 (11749266_a_at) / Fold change /veh PRRT2 (11749266_a_at) / RFU SNX32 (11753110_a_at) / Fold change /veh SNX32 (11753110_a_at) / RFU CDHR5 (11726645_a_at) / Fold change /veh CDHR5 (11726645_a_at) / RFU RCAN1 (11760418_a_at) / Fold change /veh RCAN1 (11760418_a_at) / RFU FAM167A (11723789_a_at) / Fold change /veh FAM167A (11723789_a_at) / RFU FAM26E (11764081_at) / Fold change /veh FAM26E (11764081_at) / RFU ISYNA1 (11749810_s_at) / Fold change /veh ISYNA1 (11749810_s_at) / RFU ACY1 (11761880_at) / Fold change /veh ACY1 (11761880_at) / RFU 11764098_at / Fold change /veh 11764098_at / RFU SAMD14 (11745864_x_at) / Fold change /veh SAMD14 (11745864_x_at) / RFU NPB (11741838_a_at) / Fold change /veh NPB (11741838_a_at) / RFU TMPRSS6 (11731388_a_at) / Fold change /veh TMPRSS6 (11731388_a_at) / RFU KRTAP10-2 (11738614_at) / Fold change /veh KRTAP10-2 (11738614_at) / RFU ARHGAP8 /// PRR5-ARHGAP8 (11727945_x_at) / Fold change /veh ARHGAP8 /// PRR5-ARHGAP8 (11727945_x_at) / RFU KRTAP5-7 /// NADSYN1 (11734609_at) / Fold change /veh KRTAP5-7 /// NADSYN1 (11734609_at) / RFU RASL12 (11751679_a_at) / Fold change /veh RASL12 (11751679_a_at) / RFU CDKN2B (11736163_a_at) / Fold change /veh CDKN2B (11736163_a_at) / RFU PRF1 (11729649_at) / Fold change /veh PRF1 (11729649_at) / RFU, ZNF638 /// ZNF638-IT1 / Fold change vs veh, ZNF638 /// ZNF638-IT1 / RFU, PANK3 / Fold change vs veh, PANK3 / RFU, SH3YL1 / Fold change vs veh, SH3YL1 / RFU, ZEB2 / Fold change vs veh, ZEB2 / RFU, NRIP1 / Fold change vs veh, NRIP1 / RFU, PTTG1IP / Fold change vs veh, PTTG1IP / RFU, CAPN2 / Fold change vs veh, CAPN2 / RFU, MED14 / Fold change vs veh, MED14 / RFU, SNORA58 / Fold change vs veh, SNORA58 / RFU, C1orf63 / Fold change vs veh, C1orf63 / RFU, LRRFIP1 / Fold change vs veh, LRRFIP1 / RFU, NDUFAF7 / Fold change vs veh, NDUFAF7 / RFU, SLC12A2 / Fold change vs veh, SLC12A2 / RFU, IBTK / Fold change vs veh, IBTK / RFU, ESF1 / Fold change vs veh, ESF1 / Fold change vs veh, TMEM50B / RFU, TAOK1 / Fold change vs veh, TAOK1 / RFU, ACBD3 / Fold change vs veh, ACBD3 / RFU, TMA16 / Fold change vs veh, TMA16 / RFU, RWDD3 / Fold change vs veh, RWDD3 / RFU, BCAT1 / Fold change vs veh, BCAT1 / RFU, EDEM3 / Fold change vs veh, EDEM3 / RFU, TMEM33 / Fold change vs veh, TMEM33 / RFU, WDR75 / Fold change vs veh, WDR75 / RFU, AHCTF1 / Fold change vs veh, AHCTF1 / RFU, TFRC / Fold change vs veh, TFRC / RFU, ZDHHC17 / Fold change vs veh, ZDHHC17 / RFU, NOM1 / Fold change vs veh, NOM1 / RFU, ARL8B / Fold change vs veh, ARL8B / RFU, ZBTB11 / Fold change vs veh, ZBTB11 / RFU, TAMM41 / Fold change vs veh, TAMM41 / RFU, KIAA1704 /// LOC100996395 / Fold change vs veh, KIAA1704 /// LOC100996395 / RFU, ING1 / Fold change vs veh, ING1 / RFU, TRMT61B / Fold change vs veh, TRMT61B / RFU, FUBP3 / Fold change vs veh, FUBP3 / RFU, TP53 / Fold change vs veh, TP53 / RFU, TNKS2 / Fold change vs veh, TNKS2 / RFU, ZFP14 / Fold change vs veh, ZFP14 / RFU, ACTR2 / Fold change vs veh, ACTR2 / RFU, PPP3R1 / Fold change vs veh, PPP3R1 / RFU, PIK3R1 / Fold change vs veh, PIK3R1 / RFU, HNRNPA1 / Fold change vs veh, HNRNPA1 / RFU, RNF170 / Fold change vs veh, RNF170 / RFU, ZNF28 / Fold change vs veh, ZNF28 / RFU, RNGTT / Fold change vs veh, RNGTT / RFU, OGT / Fold change vs veh, OGT / RFU, BRD1 / Fold change vs veh, BRD1 / RFU, MARS / Fold change vs veh, MARS / RFU, ZNF655 / Fold change vs veh, ZNF655 / RFU, FAHD1 / Fold change vs veh, FAHD1 / RFU, BDP1 / Fold change vs veh, BDP1 / RFU, LRRCC1 / Fold change vs veh, LRRCC1 / RFU, ARID1A / Fold change vs veh, ARID1A / RFU, ZNF146 / Fold change vs veh, ZNF146 / RFU, ZNF330 / Fold change vs veh, ZNF330 / RFU, GPN3 / Fold change vs veh, GPN3 / RFU, C9orf123 / Fold change vs veh, C9orf123 / RFU, N4BP2L2 / Fold change vs veh, N4BP2L2 / RFU, ARFIP1 / Fold change vs veh, ARFIP1 / RFU, FAM179B / Fold change vs veh, FAM179B / RFU, BCL10 / Fold change vs veh, BCL10 / RFU, UHRF1BP1L / Fold change vs veh, UHRF1BP1L / RFU, BET1 / Fold change vs veh, BET1 / RFU, CNOT2 / Fold change vs veh, CNOT2 / RFU, ZNF268 / Fold change vs veh, ZNF268 / Fold change vs veh, ZNF507 / RFU, DGCR2 / Fold change vs veh, DGCR2 / RFU, WDSUB1 / Fold change vs veh, WDSUB1 / Fold change vs veh, HSP90B1 /// MIR3652 / RFU, ADSS / Fold change vs veh, ADSS / RFU, GK / Fold change vs veh, GK / RFU, ZNF148 / Fold change vs veh, ZNF148 / RFU, TAF9 / Fold change vs veh, TAF9 / RFU, SLC1A5 / Fold change vs veh, SLC1A5 / RFU, SLMO2 / Fold change vs veh, SLMO2 / RFU, ABCC4 / Fold change vs veh, ABCC4 / RFU, LOC101060439 /// RAP1B / Fold change vs veh, LOC101060439 /// RAP1B / RFU, RFX7 / Fold change vs veh, RFX7 / RFU, GTPBP10 / Fold change vs veh, GTPBP10 / RFU, CNEP1R1 / Fold change vs veh, CNEP1R1 / RFU, BIVM-ERCC5 /// ERCC5 / Fold change vs veh, BIVM-ERCC5 /// ERCC5 / RFU, ILF3 / Fold change vs veh, ILF3 / RFU 11762660_at / Fold change /veh 11762660_at / RFU VCAN (11757783_s_at) / Fold change /veh VCAN (11757783_s_at) / RFU DDX43 (11728927_at) / Fold change /veh DDX43 (11728927_at) / RFU KRT8 (11758188_x_at) / Fold change /veh KRT8 (11758188_x_at) / RFU NKD1 (11759106_at) / Fold change /veh NKD1 (11759106_at) / RFU SRD5A1 (11742802_a_at) / Fold change /veh SRD5A1 (11742802_a_at) / RFU TPSAB1 /// TPSB2 (11721975_s_at) / Fold change /veh TPSAB1 /// TPSB2 (11721975_s_at) / RFU GSTM3 (11746129_a_at) / Fold change /veh GSTM3 (11746129_a_at) / RFU IL23R (11737362_x_at) / Fold change /veh IL23R (11737362_x_at) / RFU TMEM51 (11727254_a_at) / Fold change /veh TMEM51 (11727254_a_at) / RFU PIWIL2 (11732686_x_at) / Fold change /veh PIWIL2 (11732686_x_at) / RFU ORM1 (11744905_x_at) / Fold change /veh ORM1 (11744905_x_at) / RFU CCDC152 (11743942_at) / Fold change /veh CCDC152 (11743942_at) / RFU ECM1 (11717891_a_at) / Fold change /veh ECM1 (11717891_a_at) / RFU IL23R (11748794_a_at) / Fold change /veh IL23R (11748794_a_at) / RFU TNFAIP8L3 (11732012_x_at) / Fold change /veh TNFAIP8L3 (11732012_x_at) / RFU MBOAT4 (11741988_at) / Fold change /veh MBOAT4 (11741988_at) / RFU 11764193_at / Fold change /veh 11764193_at / RFU TMEM53 (11763286_at) / Fold change /veh TMEM53 (11763286_at) / RFU MAGEB2 (11727129_at) / Fold change /veh MAGEB2 (11727129_at) / RFU TMEM200A (11744735_a_at) / Fold change /veh TMEM200A (11744735_a_at) / RFU CCDC152 (11751479_a_at) / Fold change /veh CCDC152 (11751479_a_at) / RFU FAM211A (11726209_a_at) / Fold change /veh FAM211A (11726209_a_at) / RFU RGS16 (11746705_a_at) / Fold change /veh RGS16 (11746705_a_at) / RFU VCAN (11755009_s_at) / Fold change /veh VCAN (11755009_s_at) / RFU RHOB (11743442_s_at) / Fold change /veh RHOB (11743442_s_at) / RFU RGS16 (11720943_a_at) / Fold change /veh RGS16 (11720943_a_at) / RFU RGS16 (11720944_at) / Fold change /veh RGS16 (11720944_at) / RFU, VPS4B / Fold change vs veh, VPS4B / RFU, CREB1 / Fold change vs veh, CREB1 / RFU, DNAJC13 / Fold change vs veh, DNAJC13 / RFU, GNAQ / Fold change vs veh, GNAQ / RFU, CDK5R1 / Fold change vs veh, CDK5R1 / RFU, ZRANB3 / Fold change vs veh, ZRANB3 / RFU, CUL4A / Fold change vs veh, CUL4A / RFU, CCNY / Fold change vs veh, CCNY / RFU, UFL1 / Fold change vs veh, UFL1 / RFU, COG3 / Fold change vs veh, COG3 / RFU, DIAPH2 / Fold change vs veh, DIAPH2 / RFU, SKA2 / Fold change vs veh, SKA2 / RFU, AFF3 / Fold change vs veh, AFF3 / RFU, LMF1 / Fold change vs veh, LMF1 / RFU, IPO11 / Fold change vs veh, IPO11 / RFU, DFFB / Fold change vs veh, DFFB / RFU, FOXP1 / Fold change vs veh, FOXP1 / RFU, CARD8 / Fold change vs veh, CARD8 / RFU, STRN3 / Fold change vs veh, STRN3 / RFU, ADK / Fold change vs veh, ADK / RFU, RASSF2 / Fold change vs veh, RASSF2 / RFU, WIPF1 / Fold change vs veh, WIPF1 / RFU, LARP1B / Fold change vs veh, LARP1B / RFU, RASA1 / Fold change vs veh, RASA1 / RFU, RB1 / Fold change vs veh, RB1 / RFU, PPFIA1 / Fold change vs veh, PPFIA1 / RFU, MAT2A / Fold change vs veh, MAT2A / RFU, CCT5 / Fold change vs veh, CCT5 / RFU, WDR92 / Fold change vs veh, WDR92 / RFU, CUX1 / Fold change vs veh, CUX1 / RFU, TTC7A / Fold change vs veh, TTC7A / RFU, TMEM135 / Fold change vs veh, TMEM135 / RFU, DEPTOR / Fold change vs veh, DEPTOR / RFU, CPM / Fold change vs veh, CPM / RFU, DNAJB6 / Fold change vs veh, DNAJB6 / RFU, CACNA2D3 / Fold change vs veh, CACNA2D3 / RFU, DTX4 / Fold change vs veh, DTX4 / RFU, TFCP2 / Fold change vs veh, TFCP2 / RFU, GMCL1 /// GMCL1P1 / Fold change vs veh, GMCL1 /// GMCL1P1 / RFU, AEBP2 / Fold change vs veh, AEBP2 / RFU, SNHG1 /// SNORD22 /// SNORD25 /// SNORD26 /// SNORD27 /// SNORD28 /// SNORD29 /// SNORD31 / Fold change vs veh, SNHG1 /// SNORD22 /// SNORD25 /// SNORD26 /// SNORD27 /// SNORD28 /// SNORD29 /// SNORD31 / Fold change (Aza/veh), C12orf56 (ProbeSet 11735607_a_at) / Fold change (ACY-1035/veh), C12orf56 (ProbeSet 11735607_a_at) / Fold change (Aza/veh), FGFR1OP (ProbeSet 11751329_s_at) / Fold change (ACY-1035/veh), FGFR1OP (ProbeSet 11751329_s_at) / Fold change (Aza/veh), VPS36 (ProbeSet 11739960_a_at) / Fold change (ACY-1035/veh), VPS36 (ProbeSet 11739960_a_at) / RFU SYPL1 (11715823_x_at) / Fold change /veh SYPL1 (11715823_x_at) / RFU IGFBP7 (11715501_s_at) / Fold change /veh IGFBP7 (11715501_s_at) / RFU REEP3 (11722064_at) / Fold change /veh REEP3 (11722064_at) / RFU IGLL1 (11728026_x_at) / Fold change /veh IGLL1 (11728026_x_at): dose or concentration left out as unconfirmed
Details: ProbeSet 11728443_a_at; LIST B

`Nc1ccc(-c2cccs2)cc1NC(=O)c1ccc2c(c1)cc(C1CC1)n2CCN1CCOCC1` [ACY-1035] was tested, and the “Fold change vs veh, TAOK1” value was 0.89.
